Results published in US20060223888A1, “Valproic acid analogues and pharmaceutical composition thereof” (priority 2002, published 2006).

Columns and labels:
[1] = Pharmacokinetics and tissue distribution (plasma, liver, brain) after i.p. administration; assay type: in vivo, male Sprague-Dawley rats; conditions: rat, FIG. 1, Table 5
PTZ-induced seizures = test: ED50 against PTZ-induced seizures, i.p.; assay type: in vivo; conditions: Rattus norvegicus, ip, male Sprague-Dawley rats (n = 8)
Description: These compounds were investigated for anticonvulsant activity in mice^13 and rats (see results in Table 4) and found to be equivalent in potency to VPA.

| Affinity for / accumulation in the liver (in words) [1] | melting point [°C] | Structure (SMILES) | ED50 (PTZ-induced seizures) [mg/kg] |
| --- | --- | --- | --- |
| – | 105 to 107 | O=C(O)/C=C\C=C1CCCC1 [Compound 42a, (2Z)-4-Cyclopentylidenebut-2-enoic Acid] | – |
| – | 121 to 123 | O=C(O)/C=C\C=C1CCCCC1 [Compound 42b, (2Z)-4-Cyclohexylidenebut-2-enoic Acid] | – |
| – | 86 to 88 | O=C(O)/C=C\C=C1CCCCCC1 [Compound 42c, (2Z)-4-Cycloheptylidenebut-2-enoic Acid] | – |
| – | 110 to 112 | O=C(O)/C=C\C=C1CCCCCCC1 [Compound 42d, (2Z)-4-Cyclooctylidenebut-2-enoic Acid] | – |

The remaining lines, values behind:

| Structure (SMILES) | Affinity for / accumulation in the liver (in words) [1] | melting point [°C] | ED50 (PTZ-induced seizures) [mg/kg] |
| --- | --- | --- | --- |
| CCC=C(CCC)C(=O)O [(E)-2-ene VPA, 2-propylpent-2-enoic acid] | markedly reduced affinities for liver | – | 185 |
| O=C(O)/C=C/C=C1CCCC1 [Compound 41a, (2E)-4-Cyclopentylidenebut-2-enoic Acid] | – | 112 to 114 | – |
| O=C(O)/C=C/C=C1CCCCC1 [Compound 41b, (2E)-4-Cyclohexylidenebut-2-enoic Acid] | – | 132 to 134 | – |
| O=C(O)/C=C/C=C1CCCCCC1 [Compound 41c, (2E)-4-Cycloheptylidenebut-2-enoic Acid] | – | 88 to 89 | – |
| O=C(O)/C=C/C=C1CCCCCCC1 [Compound 41d, (2E)-4-Cyclooctylidenebut-2-enoic Acid] | – | 114 to 116 | – |
